US6087355A, “Cephalosporin antibiotics” (Microcide Pharmaceuticals, Inc., priority 1996, dated 2000)
In brackets after ≈: the same amount, converted by molar mass. Counter-ions that a name gives are not always drawn.

Assays:
[1] = test system: S. aureus ATCC 33593(Meth^R); experiment: In vitro MIC, agar dilution; format: cell-based; conditions: Staphylococcus aureus, ATCC33593, read-out: minimum inhibitory concentration (MIC)
Summary of the method: (§1)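 Test agent, dissolved in PBS pH 7.2 with Tween 20 or DMSO if needed, was mixed into molten Mueller-Hinton agar over a two-fold series topping at 128 μg/mL. Log-phase isolates were then spot-inoculated at ~10^4 cfu and incubated at 35-36 °C for 16-20 hours.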

[2] = test system: E. faecium VanA(Van^R); experiment: In vitro MIC, agar dilution; format: cell-based; conditions: Enterococcus faecium, read-out: minimum inhibitory concentration (MIC)
Summary of the method: as §1

[3] = test system: P. aeruginosa ATCC 27853; experiment: In vitro MIC, agar dilution; format: cell-based; conditions: Pseudomonas aeruginosa, ATCC27853, read-out: minimum inhibitory concentration (MIC)
Summary of the method: as §1

[4] = test system: S. aureus Spain #356(Meth^R); experiment: In vitro MIC, agar dilution; format: cell-based; conditions: Staphylococcus aureus, read-out: minimum inhibitory concentration (MIC)
Summary of the method: as §1

[5] = test system: S. haemolyticus 05(Meth^R); experiment: In vitro MIC, agar dilution; format: cell-based; conditions: Staphylococcus haemolyticus, read-out: minimum inhibitory concentration (MIC)
Summary of the method: as §1

[6] = test system: S. aureus ATCC 13709(Meth^S); experiment: In vitro MIC, agar dilution; format: cell-based; conditions: Staphylococcus aureus, ATCC13709, S. aureus ATCC 13709(Meth^S); read-out: minimum inhibitory concentration (MIC)
Summary of the method: as §1

[7] = test system: E. faecalis VanB(Van^R); experiment: In vitro MIC, agar dilution; format: cell-based; conditions: Enterococcus faecalis, read-out: minimum inhibitory concentration (MIC)
Summary of the method: as §1

[8] = test system: E. faecium ATCC 35667; experiment: In vitro MIC, agar dilution; format: cell-based; conditions: Enterococcus faecium, ATCC35667, read-out: minimum inhibitory concentration (MIC)
Summary of the method: as §1

[9] = test system: E. coli ATCC 25992; experiment: In vitro MIC, agar dilution; format: cell-based; conditions: Escherichia coli, ATCC25992, read-out: minimum inhibitory concentration (MIC)
Summary of the method: as §1

[10] = test system: E. faecium A491(Amp^R); experiment: In vitro MIC, agar dilution; format: cell-based; conditions: Enterococcus faecium, read-out: minimum inhibitory concentration (MIC)
Summary of the method: as §1

[11] = test system: E. faecalis ATCC 29212; experiment: In vitro MIC, agar dilution; format: cell-based; conditions: Enterococcus faecalis, ATCC29212, read-out: minimum inhibitory concentration (MIC)
Summary of the method: as §1

[12] = test system: S. aureus ATCC 29213; experiment: In vitro MIC, agar dilution; format: cell-based; conditions: Staphylococcus aureus, ATCC29213, read-out: minimum inhibitory concentration (MIC)
Summary of the method: as §1

[13] = test system: S. aureus PC1(Meth^S)(lac^+); experiment: In vitro MIC, agar dilution; format: cell-based; conditions: Staphylococcus aureus, read-out: minimum inhibitory concentration (MIC)
Summary of the method: as §1

[14] = test system: S. aureus 76(Meth^R)(lac^+); experiment: In vitro MIC, agar dilution; format: cell-based; conditions: Staphylococcus aureus, read-out: minimum inhibitory concentration (MIC)
Summary of the method: as §1

[15] = test system: S. aureus strain ATCC 13709 (methicillin-susceptible); experiment: Murine model for lethal bacteremic peritonitis; format: in vivo, female Swiss-Webster mice; conditions: Staphylococcus aureus, ATCC13709, SC, 72 h; for responders at 1.25 mg/kg: read-out: Survivors (converted); for ED50: two equal doses, IP challenge, read-out: ED50
Experimental: Groups of 5 female Swiss-Webster mice (Simonsen, Gilroy, Calif.) each are challenged by the intraperitoneal (IP) route with tenfold increments of a bacterial inoculum. This permits calculation of the mean lethal dose (LD50) and the LD100. For preliminary evaluation of a new antibiotic, mice are challenged IP with an LD100 titer of bacteria. In two equal doses administered at the time of bacterial challenge and 2 hours later, groups of 10 mice each are treated subcutaneously with two-fold increments of the test drug and an antibiotic of known efficacy in mice and humans (i.e., positive control). Mice are observed for 72 h. Those alive at 72 h are considered long term survivors. The total drug dose in mg/kg that protects 50% of mice in a group from death is termed the mean protective dose (PD50). PD50 s are similarly determined for several pathogens. The quantitative endpoints for the new drug are then compared with those obtained with reference antibiotics.
Six ten-fold dilutions of inoculum suspended in 0.5 mL of sterilized 7% hog gastric mucin (Sigma) are injected IP in groups of 5 mice each. A control group of 5 mice receive mucin alone. Mice are observed for 72 h. Those alive at 72 h are considered long term survivors. The mean lethal dose (LD50) and 100% lethal dose (LD100) are determined by the probit test.
For antibiotic efficacy studies, mice are challenged IP with bacterial titers that will afford an LD100 for the test strain. In two equal doses administered at the time of bacterial challenge and 2 hours later, groups of 10 mice each are treated by the subcutaneous route (SC) with twofold increments of the test antibiotic; another group is treated similarly with a reference antibiotic of known efficacy in animals and man. Drug doses can range from 0.01 to 512 mg/kg. If the drug is poorly soluble, Tween 20 or propylene glycol will be employed to solubilize the drug. Animals are observed for 72 h. The 50% protective dose (PD50) is calculated in mg/kg by the probit method. The PD50 is the same as the 50% effective dose (ED50) and the 50% curative dose (CD50). Samples of blood from the hearts of all animals that die and from half the mice that survive are cultured on brain-heart infusion agar. Animals that received a protective dosage of the test drug will be alive at 72 h, although they may appear moderately ill to very ill during the observation period. […] Most of these mice will die within 6 to 48 h. Those alive at 72 h will be considered long term survivors.
(Compound numbers correspond to those in MIC tables; data reported for challenge with methicillin-susceptible S. aureus strain ATCC 13709.)

[16] = test system: S. aureus Col(Meth^R)(lac^-); experiment: In vitro MIC, agar dilution; format: cell-based; conditions: Staphylococcus aureus, read-out: minimum inhibitory concentration (MIC)
Summary of the method: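 Two-fold dilutions (128 to ≤0.25 μg/mL, in duplicate) were poured into Mueller-Hinton agar. Log-phase broth cultures were spot-inoculated at about 10^4 cfu per spot and incubated 35-36°C for 16-20 hours; the MIC was the lowest concentration inhibiting growth. Col is a high-level PBP2a producer; Col 8A is its isogenic PBP2a-lacking partner.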

| SMILES | MIC [1] [µg/mL] | MIC [2] [µg/mL] | MIC [3] [µg/mL] | MIC [4] [µg/mL] | MIC [5] [µg/mL] | MIC [6] [µg/mL] | MIC [7] [µg/mL] | MIC [8] [µg/mL] | MIC [9] [µg/mL] | MIC [10] [µg/mL] | MIC [11] [µg/mL] | MIC [12] [µg/mL] | MIC [13] [µg/mL] | MIC [14] [µg/mL] | responders at 0.3125 mg/kg ([15]; read-out: Survivors) [%] | responders at 0.625 mg/kg ([15]; read-out: Survivors) [%] | responders at 1.25 mg/kg [15] [%] | responders at 2.5 mg/kg ([15]; read-out: Survivors) [%] | ED50 [15] [mg/kg] | MIC [16] [µg/mL] | further results |
| --- | --- | --- | --- | --- | --- | --- | --- | --- | --- | --- | --- | --- | --- | --- | --- | --- | --- | --- | --- | --- | --- |
| NC(=O)CSCc1cnccc1SC1=C(C(=O)O)N2C(=O)[C@@H](NC(=O)/C(=N\O)c3nc(N)sc3Cl)[C@H]2SC1 [Cmpd 39, (7R)-7-[(Z)-2-(2-amino-5-chlorothiazol-4-yl)-2-(hydroxyimino)acetamido]-3-(3-carboxamidomethylthiomethylpyrid-4-ylthio)-3-cephem-4-carboxylic acid] | 4 (≈ 6.49 µM) | 2 (≈ 3.25 µM) | > 32 | 4 (≈ 6.49 µM) | 8 (≈ 13 µM) | 0.25 (≈ 0.406 µM) | 0.25 (≈ 0.406 µM) | 1 (≈ 1.62 µM) | 8 (≈ 13 µM) | 32 (≈ 51.9 µM) | 0.25 (≈ 0.406 µM) | 0.25 (≈ 0.406 µM) | 0.5 (≈ 0.812 µM) | 4 (≈ 6.49 µM) | 10 | 30 | 60 | 60 | 1.15 | 2 (≈ 3.25 µM) | responders at 5 mg/kg ([15]; read-out: Survivors): 100% |
| N=C(N)NCCSCc1cnccc1SC1=C(C(=O)O)N2C(=O)[C@@H](NC(=O)/C(=N\O)c3csc(N)n3)[C@H]2SC1 [Cmpd 14, (7R)-7-[(Z)-2-(aminothiazol-4-yl)-2-(hydroxyimino)acetamido]-3-(3-guanidinoethylthiomethylpyrid-4-ylthio)-3-cephem-4-carboxylate, trifluoroacetic acid salt] | 2 | 2 | > 32 | 4 | 4 | 0.25 | 0.25 | 1 | 4 | > 32 | 0.25 | 0.5 | 0.5 | 4 | 10 | 30 | 30 | 90 | 1.13 | 4 | responders at 5 mg/kg ([15]; read-out: Survivors): 100% |
| Nc1nc(/C(=N/O)C(=O)N[C@@H]2C(=O)N3C(C(=O)O)=C(Sc4ccncc4CSCC(N)CO)CS[C@H]23)c(Cl)s1 (stereo partly drawn) [Cmpd 56, (7R)-7-[(Z)-2-(2-amino-5-chlorothiazol-4-yl)-2-(hydroxyimino)acetamido]-3-[3-(2RS-2-amino-3-hydroxyprop-1-ylthiomethyl)pyrid-4-ylthio]-3-cephem-4-carboxylate, trifluoroacetic acid salt] | 2 | 1 | > 32 | 2 | 4 | 0.25 | 2 | 1 | 8 | 8 | 0.13 | 0.5 | 0.5 | 2 | 20 | 30 | 30 | 80 | 1.23 | 2 | responders at 5 mg/kg ([15]; read-out: Survivors): 80% |
| NCCSCc1cnccc1SC1=C(C(=O)O)N2C(=O)[C@@H](NC(=O)/C(=N\O)c3nc(N)sc3Cl)[C@H]2SC1 [Cmpd 16, (7R)-7-[(Z)-2-(2-amino-5-chlorothiazol-4-yl)-2-(hydroxyimino)acetamido]-3-(3-aminoethylthiomethylpyrid-4-ylthio)-3-cephem-4-carboxylate, trifluoroacetic acid salt] | 1 | 0.25 | > 32 | 1 | 2 | 0.13 | 0.13 | 0.5 | 8 | 8 | ≤ 0.06 | 0.25 | 0.25 | 1 | 10 | 30 | 55.6 | 80 | 1 | 0.5 | responders at 0.156 mg/kg ([15]; read-out: Survivors): 20% |
| NCCSCc1cnccc1SC1=C(C(=O)O)N2C(=O)[C@@H](NC(=O)/C(=N\O)c3csc(N)n3)[C@H]2SC1 [Cmpd 10, (7R)-7-[(Z)-2-(aminothiazol-4-yl)-2-(hydroxyimino)acetamido]-3-(3-aminoethylthiomethylpyrid-4-ylthio)-3-cephem-4-carboxylate, trifluoroacetic acid salt] | 2 | 4 | > 32 | 2 | 4 | 0.5 | 1 | 2 | 4 | > 32 | 0.5 | 0.5 | 0.5 | 2 | 20 | 80 | 100 |  | 1.29 | 2 | responders at 0.078 mg/kg ([15]; Dose 0.078 mg/kg, read-out: Survivors): 20%; responders at 0.156 mg/kg ([15]; read-out: Survivors): 20% |
| NCCSCc1cnccc1SC1=C(C(=O)O)N2C(=O)[C@@H](NC(=O)/C(=N\OCCF)c3nc(N)sc3Cl)[C@H]2SC1.O=C(O)C(F)(F)F [Cmpd 33, (7R)-7-[(Z)-2-(2-amino-5-chlorothiazol-4-yl)-2-(2-fluoroethoxyimino)acetamido]-3-(3-aminoethylthiomethylpyrid-4-ylthio)-3-cephem-4-carboxylate, trifluoroacetic acid salt] | 2 | 2 | 32 | 1 | 2 | 0.13 | 0.13 | 0.5 | 1 | 8 | 0.13 | 0.25 | 0.25 | 1 | 0 | 40 | 50 | 90 | 1.19 | 1 | responders at 5 mg/kg ([15]; read-out: Survivors): 80% |
